Results from PubChem BioAssay (NCI).
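Following 48 hours of exposure in 96-well plates, responses at five concentrations were used to interpolate endpoints linearly. GI50: concentration for 50% inhibition of growth. TGI marks complete inhibition of growth.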

How the values were obtained:
Assay in all cases: inhibition of tumour cell growth, NCI panel, 48 h
786-0 renal = tested on: 786-0 renal
A498 renal = tested on: A498 renal
A549 NSCLC = tested on: A549 NSCLC
ACHN renal = tested on: ACHN renal
BT-549 breast = tested on: BT-549 breast
CAKI-1 renal = tested on: CAKI-1 renal
CCRF-CEM leukemia = tested on: CCRF-CEM leukemia
COLO 205 colon = tested on: COLO 205 colon
DU-145 prostate = tested on: DU-145 prostate
EKVX NSCLC = tested on: EKVX NSCLC
HCC-2998 colon = tested on: HCC-2998 colon
HCT-116 colon = tested on: HCT-116 colon
HCT-15 colon = tested on: HCT-15 colon
HL-60(TB) leukemia = tested on: HL-60(TB) leukemia
HOP-62 NSCLC = tested on: HOP-62 NSCLC
HOP-92 NSCLC = tested on: HOP-92 NSCLC
HS 578T breast = tested on: HS 578T breast
HT29 colon = tested on: HT29 colon
IGROV1 ovarian = tested on: IGROV1 ovarian
K-562 leukemia = tested on: K-562 leukemia
KM12 colon = tested on: KM12 colon
LOX IMVI melanoma = tested on: LOX IMVI melanoma
M14 melanoma = tested on: M14 melanoma
MALME-3M melanoma = tested on: MALME-3M melanoma
MCF7 breast = tested on: MCF7 breast
MDA-MB-231 breast = tested on: MDA-MB-231 breast
MDA-MB-435 = tested on: MDA-MB-435
MOLT-4 leukemia = tested on: MOLT-4 leukemia
NCI-H226 lung = tested on: NCI-H226 lung

`C=CCNCCN1C(=O)c2ccc3c4c(ccc(c24)C1=O)C(=O)N(CCNCC=C)C3=O` showed a GI50 (786-0 renal) of 1110 nM, a TGI (786-0 renal) of 2800 nM and a GI50 (A498 renal) of 1140 nM. The TGI (A498 renal) was 3570 nM, the GI50 (A549 NSCLC) was 418 nM and the TGI (A549 NSCLC) was 1670 nM. For the same compound, the GI50 (ACHN renal) was 407 nM, the TGI (ACHN renal) was 2520 nM and the GI50 (BT-549 breast) was 2910 nM. For the same compound, the TGI (BT-549 breast) was 10200 nM, the GI50 (CAKI-1 renal) was 630 nM and the TGI (CAKI-1 renal) was 1840 nM. For the same compound, the GI50 (CCRF-CEM leukemia) was 708 nM, the TGI (CCRF-CEM leukemia) was 3440 nM and the GI50 (COLO 205 colon) was 160 nM. The TGI (COLO 205 colon) was 407 nM, the GI50 (DU-145 prostate) was 663 nM and the TGI (DU-145 prostate) was 1360 nM. For the same compound, the GI50 (EKVX NSCLC) was 557 nM, the TGI (EKVX NSCLC) was 1510 nM and the GI50 (HCC-2998 colon) was 766 nM. The TGI (HCC-2998 colon) was 1550 nM, the GI50 (HCT-116 colon) was 500 nM and the TGI (HCT-116 colon) was 50000 nM. The GI50 (HCT-15 colon) was 457 nM, the TGI (HCT-15 colon) was 1660 nM and the GI50 (HL-60(TB) leukemia) was 860 nM. For the same compound, the TGI (HL-60(TB) leukemia) was 2210 nM, the GI50 (HOP-62 NSCLC) was 712 nM and the TGI (HOP-62 NSCLC) was 2700 nM. It also gave a GI50 (HOP-92 NSCLC) of 1810 nM, a TGI (HOP-92 NSCLC) of 5560 nM and a GI50 (HS 578T breast) of 1760 nM. It also gave a TGI (HS 578T breast) of 8710 nM, a GI50 (HT29 colon) of 193 nM and a TGI (HT29 colon) of 769 nM. It also gave a GI50 (IGROV1 ovarian) of 504 nM, a TGI (IGROV1 ovarian) of 1670 nM and a GI50 (K-562 leukemia) of 534 nM. For the same compound, the TGI (K-562 leukemia) was 3240 nM, the GI50 (KM12 colon) was 590 nM and the TGI (KM12 colon) was 1820 nM. The GI50 (LOX IMVI melanoma) was 728 nM, the TGI (LOX IMVI melanoma) was 1770 nM and the GI50 (M14 melanoma) was 918 nM. It also gave a TGI (M14 melanoma) of 1800 nM, a GI50 (MALME-3M melanoma) of 343 nM and a TGI (MALME-3M melanoma) of 996 nM. The GI50 (MCF7 breast) was 225 nM, the TGI (MCF7 breast) was 983 nM and the GI50 (MDA-MB-231 breast) was 1260 nM. It also gave a TGI (MDA-MB-231 breast) of 4710 nM, a GI50 (MDA-MB-435) of 745 nM and a TGI (MDA-MB-435) of 1700 nM. The GI50 (MOLT-4 leukemia) was 427 nM, the TGI (MOLT-4 leukemia) was 1630 nM and the GI50 (NCI-H226 lung) was 493 nM. The TGI (NCI-H226 lung) was 1460 nM.
